Here are results for 4 compounds from patent US7998984B2, “2-pyridone derivatives for the treatment of disease or condition in which inhibition of neutrophil elastase activity is beneficial” (AstraZeneca AB, priority 2006, dated 2011).

This test deals with T1, Human Neutrophil Elastase (HNE) (Homo sapiens, UniProt P08246).
T1 construct: Human Neutrophil Elastase (HNE) purified from serum; purchased Calbiochem 324681; host or cells: purified from human serum (so in the source)
T1 sequence (P08246 30-247 limits assumed): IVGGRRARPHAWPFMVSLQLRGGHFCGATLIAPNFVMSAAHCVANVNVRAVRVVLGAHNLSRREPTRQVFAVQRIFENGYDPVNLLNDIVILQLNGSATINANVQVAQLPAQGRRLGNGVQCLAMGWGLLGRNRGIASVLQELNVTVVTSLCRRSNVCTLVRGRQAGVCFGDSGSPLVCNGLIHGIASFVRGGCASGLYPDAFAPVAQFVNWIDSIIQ
As to the kind of experiment: Human Neutrophil Elastase Quenched-FRET Assay. The class given is biochemical. To be noted: HNE 1.7 nM, substrate MeOSuc-AAPV-AMC 100 μM, 15 min pre-incubation, 30 min incubation at room temperature; read-out: Inhibition of Human Neutrophil Elastase IC50. The procedure:
Human Neutrophil Elastase Quenched-FRET Assay
HNE was stored in 50 mM sodium acetate (NaOAc), 200 mM sodium chloride (NaCl), pH 5.5 with added 30% glycerol at −20° C. […] The substrate was stored in dimethyl sulphoxide (DMSO) at −20° C. […] The assay buffer constitution was: 100 mM Tris(hydroxymethyl)aminomethane (TRIS) (pH 7.5) and 500 mM NaCl. The enzyme and the compounds were incubated at room temperature for 15 minutes. Then 30 μl substrate in assay buffer was added. The assay was incubated for 30 minutes at room temperature. […] The assay was then stopped by adding 60 μl stop solution (140 mM acetic acid, 200 mM sodium monochloroacetate, 60 mM sodium acetate, pH 4.3).
In general, IC50 refers to the concentration that gives 50% inhibition. Consider `CNC(=O)c1cc(-c2ocnc2-c2ccc(Cl)cc2)c(C)n(-c2cccc(C(F)(F)F)c2)c1=O` [Example 4, 5-[4-(4-Chlorophenyl)-1,3-oxazol-5-yl]-N,6-dimethyl-2-oxo-1-[3-(trifluoromethyl)phenyl]-1,2-dihydropyridine-3-carboxamide], for which the half-inhibitory concentration (IC50) worked out at 1.6 nM.
In the case of `CNC(=O)c1cc(-c2ccnn2-c2ccc(C#N)cc2)c(C)n(-c2ccc(F)c(Cl)c2)c1=O` [Example 6, 1-(3-Chloro-4-fluorophenyl)-5-[1-(4-cyanophenyl)-1H-pyrazol-5-yl]-N,6-dimethyl-2-oxo-1,2-dihydropyridine-3-carboxamide], the IC50 is 0.93 nM.
Turning to `CNC(=O)c1cc(-c2nc(N)sc2-c2ccc(Cl)cc2)c(C)n(-c2cccc(C(F)(F)F)c2)c1=O` [Example 3, 5-[2-Amino-5-(4-chlorophenyl)-1,3-thiazol-4-yl]-N,6-dimethyl-2-oxo-1-[3-(trifluoromethyl)-phenyl]-1,2-dihydropyridine-3-carboxamide], the IC50 was found to be 0.26 nM.
On to `CNC(=O)c1cc(-c2nc(N)sc2-c2ccc(C#N)cc2)c(C)n(-c2cccc(C(F)(F)F)c2)c1=O` [Example 5, 5-[2-Amino-5-(4-cyanophenyl)-1,3-thiazol-4-yl]-N,6-dimethyl-2-oxo-1-[3-(trifluoromethyl)phenyl]-1,2-dihydropyridine-3-carboxamide], for which the IC50 is 0.26 nM.
